Experimental data from ChEMBL document CHEMBL1201862, “PubChem BioAssay data set” (2004).
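These data come from cells grown in 96-well plates and exposed to compound for 48 hours at five concentrations. GI50 marks 50% less growth.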 The source made the active and inactive calls. Cut-off read from the data, not from the text of the source: active = GI50 up to about 1.1 µM and inactive = higher.

What was measured:
Assay in all cases: DTP human tumour cell line panel, 48 h
M14 = test system: M14
NCI-H460 = test system: NCI-H460
HCT-15 = test system: HCT-15
NCI-H23 = test system: NCI-H23
OVCAR-3 = test system: OVCAR-3
U-251 = test system: U-251
SNB-19 = test system: SNB-19
786-0 = test system: 786-0
SW-620 = test system: SW-620
HOP-62 = test system: HOP-62
LOX IMVI = test system: LOX IMVI
T47D = test system: T47D
MDA-MB-435 = test system: MDA-MB-435
HCC 2998 = test system: HCC 2998
A549 = test system: A549
MDA-MB-231 = test system: MDA-MB-231
BT-549 = test system: BT-549
SK-MEL-2 = test system: SK-MEL-2
SNB-75 = test system: SNB-75
UO-31 = test system: UO-31
SK-OV-3 = test system: SK-OV-3
EKVX = test system: EKVX
MDA-N = test system: MDA-N
TK-10 = test system: TK-10
OVCAR-8 = test system: OVCAR-8
MOLT-4 = test system: MOLT-4
MCF7 = test system: MCF7
SF-539 = test system: SF-539
HL-60 = test system: HL-60
A498 = test system: A498
UACC-62 = test system: UACC-62
RXF 393 = test system: RXF 393
ACHN = test system: ACHN
HOP-92 = test system: HOP-92
KM12 = test system: KM12
OVCAR-5 = test system: OVCAR-5
HT-29 = test system: HT-29
CAKI-1 = test system: CAKI-1
UACC-257 = test system: UACC-257
NCI-H226 = test system: NCI-H226
OVCAR-4 = test system: OVCAR-4
SK-MEL-5 = test system: SK-MEL-5
SK-MEL-28 = test system: SK-MEL-28
COLO 205 = test system: COLO 205
SF-295 = test system: SF-295
DU-145 = test system: DU-145
NCI/ADR-RES = test system: NCI/ADR-RES
SN12C = test system: SN12C
SF-268 = test system: SF-268
HCT-116 = test system: HCT-116
IGROV-1 = test system: IGROV-1
CCRF-CEM = test system: CCRF-CEM
NCI-H522 = test system: NCI-H522
SR = test system: SR
Hs-578T = test system: Hs-578T
K562 = test system: K562
RPMI-8226 = test system: RPMI-8226
Malme-3M = test system: Malme-3M

Measured: GI50

N#CC(C#N)=CNC(=S)Nc1ccc(S(=O)(=O)Nc2nccs2)cc1
> 100 µM: HCT-15
inactive: M14 > 100 µM | NCI-H460 > 100 µM | NCI-H23 > 100 µM | OVCAR-3 > 100 µM | U-251 > 100 µM | SNB-19 > 100 µM | 786-0 > 100 µM | SW-620 > 100 µM | HOP-62 > 100 µM | LOX IMVI > 100 µM | T47D > 100 µM | MDA-MB-435 > 100 µM | HCC 2998 > 100 µM | A549 > 100 µM | MDA-MB-231 > 100 µM | BT-549 > 100 µM | SK-MEL-2 > 100 µM | SNB-75 > 100 µM | UO-31 > 100 µM | SK-OV-3 > 100 µM | EKVX > 100 µM | MDA-N > 100 µM | TK-10 > 100 µM | OVCAR-8 > 100 µM | MOLT-4 > 100 µM | MCF7 > 100 µM | SF-539 > 100 µM | HL-60 > 100 µM | A498 > 100 µM | UACC-62 > 100 µM | RXF 393 > 100 µM | ACHN > 100 µM | HOP-92 > 100 µM | KM12 > 100 µM | OVCAR-5 > 100 µM | HT-29 > 100 µM | CAKI-1 > 100 µM | UACC-257 > 100 µM | NCI-H226 > 100 µM | OVCAR-4 > 100 µM | SK-MEL-5 > 100 µM | SK-MEL-28 > 100 µM | COLO 205 > 100 µM | SF-295 > 100 µM | DU-145 > 100 µM | NCI/ADR-RES > 100 µM | SN12C > 100 µM | SF-268 > 100 µM | HCT-116 > 100 µM | IGROV-1 > 100 µM

COc1ccccc1-c1cc(O)c2cc(C)cnc2n1
inactive: M14 37.9 µM | NCI-H23 40 µM | CCRF-CEM 17.2 µM | SNB-19 71.9 µM | NCI-H522 17.2 µM | SR > 100 µM | SW-620 24.7 µM | HOP-62 42.9 µM | Hs-578T 43.4 µM | LOX IMVI 46 µM | T47D 63.4 µM | MDA-MB-435 3.8 µM | HCC 2998 62.1 µM | A549 51.6 µM | MDA-MB-231 67.3 µM | BT-549 45.5 µM | SK-MEL-2 25.2 µM | UO-31 47.9 µM | SK-OV-3 25.3 µM | EKVX 52.1 µM | TK-10 > 100 µM | OVCAR-8 66.2 µM | MOLT-4 31.5 µM | MCF7 47.5 µM | SF-539 38.5 µM | K562 5.89 µM | A498 24.9 µM | UACC-62 31.8 µM | RXF 393 33.4 µM | ACHN 68.7 µM | HOP-92 36.8 µM | RPMI-8226 30.4 µM | KM12 5.5 µM | OVCAR-5 80.5 µM | HT-29 23.1 µM | CAKI-1 19.3 µM | UACC-257 38 µM | NCI-H226 52.2 µM | OVCAR-4 > 100 µM | SK-MEL-28 22.6 µM | COLO 205 14.8 µM | DU-145 47.9 µM | NCI/ADR-RES 15 µM | Malme-3M 24.7 µM | SN12C 66.4 µM | SF-268 52.7 µM | IGROV-1 16.4 µM
19.3 µM: HCT-15
